Measured values taken from patent US20260364101A1, “OLEUROPEIN IN THE MANAGEMENT OF CANCER” (FUNDACIÓN MIGUEL SERVET, priority 2023, published 2026).
“Also recorded” adds a separate entry of the source.

Tests used:
m-MDSC = test: quantitative proteomics and Ingenuity Pathway Analysis of m-MDSC; type: cell-based, mouse
Description: Immunosuppressive myeloid cell subsets resembling tumor-infiltrating subsets (g-MDSCs, m-MDSCs and TAMs) were differentiated from mouse bone marrow following published procedures using conditioning medium produced by LLC tumor cells stably expressing GMCSF and MCSF cells. g- and m-MDSCs were purified using the myeloid-derived suppressor cell isolation kit (Miltenyi Biotec, Bergisch, Germany) according to manufacturer's recommendations. MDSCs and TAMs were seeded with 500 nM BML-275 or 50 μM oleuropein and incubated for seven days.
A unique proteomic experiment was carried out with five biological replicates per sample (m-MDSC, g-MDSC and TAM). Cells were homogenized in a lysis buffer containing 7 M urea, 2 M thiourea 50 mM DTT. The homogenates were spun down at 14000 g for 1 h at 15 °C. Before proteomic analysis, protein extracts were diluted with Laemmli sample buffer in 100 μL and loaded into a 0.75 mm thick polyacrylamide gel with a 4% stacking gel casted over a 12.5% resolving gel. The run was stopped as soon as the front entered 3 mm into the resolving gel so that the whole proteome became concentrated in the stacking/resolving gel interface. Bands were stained with Coomassie Brilliant Blue, excised from the gel and protein enzymatic cleavage was carried out with trypsin (Promega; 1:20, w/w) at 37 °C for 16 h as previously described. Purification and concentration of peptides was performed using C18 Zip Tip Solid Phase Extraction (Millipore).
Peptide mixtures were separated by reverse phase chromatography using an UltiMate 3000 UHLPC System (Thermo Scientific) fitted with an Aurora packed emitter column (lonopticks, 25 cm×75 μm ID, 1.6 μm C18). Samples were first loaded for desalting and concentration into an Acclaim PepMap column (ThermoFisher, 0.5 cm×300 μm ID, 5 μm C18) packed with the same chemistry as the separating column. Mobile phases were 100% water 0.1% formic acid (FA) (buffer A) and 100% Acetonitrile 0.1% FA (buffer B). Column gradient was developed in a 120 min two step gradient from 5% B to 20% B in 90 min and 20% B to 32% B in 30 min. Column was equilibrated in 95% B for 10 min and 5% B for 20 min. During the whole process, the precolumn was in line with the column and the flow maintained all along the gradient at 300 nl/min. The column temperature was maintained at 40 °C using an integrated column oven (PRSO-V2, Sonation, Biberach, Germany) and interfaced online with the Orbitrap Exploris 480 MS. Spray voltage were set to 2 kV, funnel RF level at 40, and heated capillary temperature at 300 °C. For DDA experiments full MS resolutions were set to […] at m/z 200 and full MS AGC target was set to Standard with an IT mode Auto. Mass range was set to 375-1500. AGC target value for fragment spectra was set to Standard with a resolution of 15,000 and 3 seconds for cycle time. The intensity threshold was kept at 8E3. Isolation width was set at 1.4 m/z. Normalized collision energy was set at 30%. All data were acquired in centroid mode using positive polarity and peptide match was set to off, and isotope exclusion was on.
Raw files were processed with MaxQuant v1.6.17.0 using the integrated Andromeda Search engine. All data were searched against a target/decoy version of the mouse Uniprot Reference Proteome with March 2021 release. First search peptide tolerance was set to 20 ppm, main search peptide tolerance was set to 4.5 ppm. Fragment mass tolerance was set to 20 ppm. Trypsin was specified as enzyme, […] carbamidomethylation of cysteine was specified as fixed modification and peptide N-terminal acetylation, oxidation of methionine, deamidation of asparagine and glutamine and pyro-glutamate formation from glutamine and glutamate were considered variable modifications with a total of two variable modifications per peptide. […]

LLC cells = test: LLC lung cancer mouse tumor model resistant to immunotherapy; type: in vivo, C57BL/6 mice; settings: for tumor growth: 300 μg oleuropein i.p. every other day for eight days
Description: C57BL/6 female mice were subcutaneously (s.c) injected with […] LLC cells or 0.5×10^6 MC38 cells per animal. When tumor growth reached an average diameter of 3.5 mm (day 0), mice received 100 μg of anti-PD-1 mAb (RPMI-14, BioXCell) intraperitoneally (i.p) at days 0, 5, and 13. Control mice received the same volume of saline. For oleuropein, mice received 300 μg oleuropein at days-1, 2, 4, 6, and 8. As negative control, the same volume of saline was injected.
The efficacy of all treatments was evaluated every two days by measuring two perpendicular tumor measurements. The size was calculated using the formula: Size=Length x Width. Mice were humanely sacrificed when tumor size reached ~150 mm^2, or when tumor ulceration or evident discomfort were observed. For rechallenge experiments in the MC38 model, mice that rejected tumors were injected s.c. with 5×10^5 MC38 cells in the left flank three months after the first tumor inoculation. Naïve mice were included as controls and development of tumors was evaluated for two months.
Tumor measurements of in vivo experiments are represented as tumor diameter (mm^2) and plotted either as individual data points for one individual mouse or as mean±SD as indicated in the figure legends. Statistical analysis was performed using one way ANOVA test followed by a Sidak's multiple comparison test at 0.05 level of significance. For in vivo experiments, to compare multiple experimental groups, one-way ANOVA test and Tukey's multiple comparison test were used. Two-tailed Student's t test was applied to compare two experimental groups. Survival of tumor-bearing mice is represented by Kaplan-Meier plots and analyzed by log-rank test. The p values <0.05 were considered statistically significant.
To test antitumor capacities in vivo, LLC cells were implanted subcutaneously into groups of mice and tumors were allowed to grow to an average diameter of approximately […]. This model was chosen because LCC cells are poorly immunogenic and notoriously refractory to PD-L1/PD-1 blockade. Oleuropein was then administered intraperitoneally every other day for eight days.
To address whether oleuropein could be combined with anti-PD1 immunotherapy to treat LCC-derived tumors, anti-PD1 mAb was systemically administered in combination with intraperitoneal injection of oleuropein. As controls, groups of mice treated with each of the agents singly and saline-treated groups were included.

TAMCs = test: apoptotic effect on myeloid cell populations; type: cell-based
[1] = LLC s.c., oleuropein 300 μg i.p. alone or with anti-PD-1 mAb 100 μg i.p.

## C/C=C1/[C@H](O[C@@H]2O[C@H](CO)[C@@H](O)[C@H](O)[C@H]2O)OC=C(C(=O)OC)[C@H]1CC(=O)OCCc1ccc(O)c(O)c1 [oleuropein]
m-MDSC; IPA, m-MDSC
  BAG2 signalling: activated
  EIF2 signalling: activated
  FAT10 signalling: down-modulated
  NRF2-mediated oxidative stress response: downregulated
  granzyme A signalling: activated
  production of proinflammatory cytokines: down-modulated
  sirtuin signalling: activated
  upstream regulator PTEN: increase
  upstream regulator methylprednisolone: decrease
m-MDSC; m-MDSC
  effect over m-MDSC intracellular regulatory pathways: potent effect over m-MDSC intracellular regulatory pathways
m-MDSC; m-MDSC treated with oleuropein, data not shown
  proteins differentially regulated: 912 proteins
LLC cells; LLC s.c.
  tumor growth: significantly delayed tumor growth
LLC cells; LLC s.c., listed as Oleuropein
  tumor growth: delayed tumor growth
LLC cells; [1]
  increased survival, time: up to 20 days
  survival: significant increase in long-term survival
LLC cells; LLC s.c., oleuropein 300 μg i.p. alone or with anti-PD-1 mAb 100 μg i.p., listed as Oleuropein
  survival: significantly increased survival
LLC cells; LLC s.c., oleuropein i.p.
  mice responding to the treatment: most of the mice responding to the treatment
LLC cells; tumor model intrinsically resistant to PD-1 blockade
  improvement of aPD-1 therapies: improved aPD-1 therapies in a tumor model intrinsically resistant to PD-1 blockade; also recorded: improved aPD-1 and anti-LAG-3 therapies
TAMCs
  apoptotic effect: does not provide any apoptotic effect
